# Source: patent publication EP1561465A2, “Methods of use of fluoroquinolone compounds against bacteria” (LG Life Sciences, Ltd., priority 1999, dated 2001)
# Like-named read-outs stand apart in the source and are kept apart here.
# Assays:
# Assay type in all cases: cell-based
# Moraxella catarrhalis = experiment: MIC by NCCLS reference broth microdilution, 450 respiratory tract pathogens
# Streptococcus pyogenes = experiment: as above; conditions: Streptococcus pyogenes
# Haemophilus influenzae = experiment: as above
# Streptococcus pneumoniae [1] = experiment: MIC by agar dilution (NCCLS), 411 isolates Buenos Aires 1998-99; conditions: Streptococcus pneumoniae, S. pneumoniae, read-out: MIC90
# Staphylococcus aureus = experiment: MIC by NCCLS reference broth microdilution, 450 respiratory tract pathogens
# Klebsiella pneumoniae = experiment: as above; conditions: for MIC50 / MIC90: Klebsiella pneumoniae
# Streptococcus pneumoniae [2] = experiment: as above; conditions: for MIC50 / MIC90 / MIC: Streptococcus pneumoniae
# [3] = Streptococcus pyogenes (n = 100)
# [4] = erythromycin resistant C phenotype [MLSB] (n = 20)
# [5] = erythromycin resistant I phenotype [MLSB] (n = 20)
# [6] = erythromycin resistant M phenotype (n = 20)
# [7] = Haemophilus influenzae, Haemophilus influenzae (n = 100)
# [8] = Haemophilus influenzae, Haemophilus influenzae (n = 100), read-out: MIC90
# [9] = Haemophilus influenzae, β-lactamase negative (n = 80)
# [10] = Haemophilus influenzae, β-lactamase negative (n = 80), read-out: MIC90
# [11] = Haemophilus influenzae, β-lactamase positive (n = 20)
# [12] = Haemophilus influenzae, β-lactamase positive (n = 20), read-out: MIC90
# [13] = β-lactamase positive and erythromycin resistant (n = 10)
# [14] = extended spectrum β-lactamase positive (n = 20)
# [15] = Streptococcus pneumoniae (n = 100)
# [16] = erythromycin resistant M phenotype (n = 16)
# [17] = erythromycin resistant MLSB phenotype (n = 16)
# [18] = penicillin intermediate (n = 16)
# [19] = penicillin susceptible (n = 20)
# [20] = extended spectrum β-lactamase negative (n = 30)
smiles,measurement,setting,value
"CO/N=C(\C(=O)N[C@@H]1C(=O)N2C(C(=O)O)=C(COC(N)=O)CS[C@H]12)c1ccco1 [Cefuroxime, cefuroxime]",MIC,Moraxella catarrhalis; Moraxella catarrhalis (n = 50),0.00375 to 1 mg/L
same,MIC50,Moraxella catarrhalis; Moraxella catarrhalis (n = 50),0.25 mg/L
same,MIC90,Moraxella catarrhalis; Moraxella catarrhalis (n = 50),1 mg/L
same,MIC,Moraxella catarrhalis; β-lactamase negative (n = 13),0.00375 to 1 mg/L
same,MIC50,Moraxella catarrhalis; β-lactamase negative (n = 13),0.12 mg/L
same,MIC90,Moraxella catarrhalis; β-lactamase negative (n = 13),0.5 mg/L
same,MIC,Moraxella catarrhalis; β-lactamase positive (n = 37),0.00375 to 1 mg/L
same,MIC50,Moraxella catarrhalis; β-lactamase positive (n = 37),0.25 mg/L
same,MIC90,Moraxella catarrhalis; β-lactamase positive (n = 37),1 mg/L
same,MIC,Streptococcus pyogenes; [3],0.00375 to 0.015 mg/L
same,MIC50,Streptococcus pyogenes; [3],0.0075 mg/L
same,MIC90,Streptococcus pyogenes; [3],0.015 mg/L
same,MIC,Streptococcus pyogenes; [4],0.00375 to 0.015 mg/L
same,MIC50,Streptococcus pyogenes; [4],≤ 0.00375 mg/L
same,MIC90,Streptococcus pyogenes; [4],0.015 mg/L
same,MIC,Streptococcus pyogenes; [5],0.00375 to 0.01 mg/L
same,MIC50,Streptococcus pyogenes; [5],≤ 0.00375 mg/L
same,MIC90,Streptococcus pyogenes; [5],0.015 mg/L
same,MIC,Streptococcus pyogenes; [6],0.00375 to 0.015 mg/L
same,MIC50,Streptococcus pyogenes; [6],≤ 0.00375 mg/L
same,MIC90,Streptococcus pyogenes; [6],0.015 mg/L
same,MIC,Streptococcus pyogenes; fully susceptible (n = 20),0.0075 to 0.015 mg/L
same,MIC50,Streptococcus pyogenes; fully susceptible (n = 20),0.0075 mg/L
same,MIC90,Streptococcus pyogenes; fully susceptible (n = 20),0.015 mg/L
same,MIC,Streptococcus pyogenes; multi-drug resistant (n = 20),0.0075 to 0.015 mg/L
same,MIC90,Streptococcus pyogenes; multi-drug resistant (n = 20),0.015 mg/L
same,MIC,Haemophilus influenzae; [7],0.12 to 4 mg/L
same,MIC50,Haemophilus influenzae; [7],0.5 mg/L
same,MIC90,Haemophilus influenzae; [8],1 mg/L
same,MIC,Haemophilus influenzae; [9],0.25 to 1 mg/L
same,MIC50,Haemophilus influenzae; [9],0.5 mg/L
same,MIC90,Haemophilus influenzae; [10],1 mg/L
same,MIC,Haemophilus influenzae; [11],0.12 to 4 mg/L
same,MIC50,Haemophilus influenzae; [11],0.5 mg/L
same,MIC90,Haemophilus influenzae; [12],1 mg/L
same,MIC90,Streptococcus pneumoniae [1]; Penicillin intermediate (n = 17),4 mg/L
same,MIC90,Streptococcus pneumoniae [1]; Penicillin resistant (n = 4),4 mg/L
same,MIC90,Streptococcus pneumoniae [1]; Penicillin susceptible (n = 69),0.03 mg/L
same,MIC,Staphylococcus aureus; Staphylococcus aureus (n = 50),0.00375 to 0.25 mg/L
same,MIC50,Staphylococcus aureus; Staphylococcus aureus (n = 50),0.25 mg/L
same,MIC90,Staphylococcus aureus; Staphylococcus aureus (n = 50),0.25 mg/L
same,MIC,Staphylococcus aureus; β-lactamase negative (n = 20),0.0075 to 0.25 mg/L
same,MIC50,Staphylococcus aureus; β-lactamase negative (n = 20),0.25 mg/L
same,MIC90,Staphylococcus aureus; β-lactamase negative (n = 20),0.25 mg/L
same,MIC,Staphylococcus aureus; β-lactamase positive (n = 20),0.06 to 0.25 mg/L
same,MIC50,Staphylococcus aureus; β-lactamase positive (n = 20),0.25 mg/L
same,MIC90,Staphylococcus aureus; β-lactamase positive (n = 20),0.25 mg/L
same,MIC,Staphylococcus aureus; [13],0.06 to 0.25 mg/L
same,MIC50,Staphylococcus aureus; [13],0.12 mg/L
same,MIC90,Staphylococcus aureus; [13],0.25 mg/L
same,MIC50,Klebsiella pneumoniae; Klebsiella pneumoniae (n = 50),2 mg/L
same,MIC90,Klebsiella pneumoniae; Klebsiella pneumoniae (n = 50),128 mg/L
same,MIC50,Klebsiella pneumoniae; [14],128 mg/L
same,MIC90,Klebsiella pneumoniae; [14],> 128 mg/L
same,MIC Range,Streptococcus pneumoniae [2]; [15],≤0.0075 to 8 mg/L
same,MIC50,Streptococcus pneumoniae [2]; [15],0.03 mg/L
same,MIC90,Streptococcus pneumoniae [2]; [15],2 mg/L
same,MIC,Streptococcus pneumoniae [2]; [16],0.0075 to 0.12 mg/L
same,MIC50,Streptococcus pneumoniae [2]; [16],0.015 mg/L
same,MIC90,Streptococcus pneumoniae [2]; [16],0.12 mg/L
same,MIC,Streptococcus pneumoniae [2]; [17],0.015 to 0.5 mg/L
same,MIC50,Streptococcus pneumoniae [2]; [17],0.015 mg/L
same,MIC90,Streptococcus pneumoniae [2]; [17],0.03 mg/L
same,MIC,Streptococcus pneumoniae [2]; multi-drug resistant (n = 16),0.015 to 0.25 mg/L
same,MIC50,Streptococcus pneumoniae [2]; multi-drug resistant (n = 16),0.03 mg/L
same,MIC90,Streptococcus pneumoniae [2]; multi-drug resistant (n = 16),0.03 mg/L
same,MIC,Streptococcus pneumoniae [2]; [18],0.12 to 8 mg/L
same,MIC50,Streptococcus pneumoniae [2]; [18],2 mg/L
same,MIC90,Streptococcus pneumoniae [2]; [18],2 mg/L
same,MIC,Streptococcus pneumoniae [2]; penicillin resistant (n = 18),2 to 8 mg/L
same,MIC50,Streptococcus pneumoniae [2]; penicillin resistant (n = 18),2 mg/L
same,MIC90,Streptococcus pneumoniae [2]; penicillin resistant (n = 18),8 mg/L
same,MIC,Streptococcus pneumoniae [2]; [19],0.0075 to 0.015 mg/L
same,MIC50,Streptococcus pneumoniae [2]; [19],0.015 mg/L
same,MIC90,Streptococcus pneumoniae [2]; [19],0.015 mg/L
"NC1CCN(c2c(F)cc3c(=O)c(C(=O)O)cn(C4CC4)c3c2Cl)C1 (stereo not shown) [Clinafloxacin, clinafloxacin]",MIC,Moraxella catarrhalis; Moraxella catarrhalis (n = 50),0.00375 to 0.015 mg/L
same,MIC50,Moraxella catarrhalis; Moraxella catarrhalis (n = 50),≤ 0.00375 mg/L
same,MIC90,Moraxella catarrhalis; Moraxella catarrhalis (n = 50),0.015 mg/L
same,MIC,Moraxella catarrhalis; β-lactamase negative (n = 13),0.00375 to 0.015 mg/L
same,MIC50,Moraxella catarrhalis; β-lactamase negative (n = 13),≤ 0.00375 mg/L
same,MIC90,Moraxella catarrhalis; β-lactamase negative (n = 13),0.015 mg/L
same,MIC,Moraxella catarrhalis; β-lactamase positive (n = 37),0.00375 to 0.015 mg/L
same,MIC50,Moraxella catarrhalis; β-lactamase positive (n = 37),≤ 0.00375 mg/L
same,MIC90,Moraxella catarrhalis; β-lactamase positive (n = 37),0.015 mg/L
same,MIC,Streptococcus pyogenes; [3],0.015 to 0.12 mg/L
same,MIC50,Streptococcus pyogenes; [3],0.06 mg/L
same,MIC90,Streptococcus pyogenes; [3],0.06 mg/L
same,MIC,Streptococcus pyogenes; [4],0.03 to 0.12 mg/L
same,MIC50,Streptococcus pyogenes; [4],0.06 mg/L
same,MIC90,Streptococcus pyogenes; [4],0.12 mg/L
same,MIC,Streptococcus pyogenes; [5],0.03 to 0.06 mg/L
same,MIC50,Streptococcus pyogenes; [5],0.06 mg/L
same,MIC90,Streptococcus pyogenes; [5],0.06 mg/L
same,MIC,Streptococcus pyogenes; [6],0.015 to 0.06 mg/L
same,MIC50,Streptococcus pyogenes; [6],0.03 mg/L
same,MIC90,Streptococcus pyogenes; [6],0.06 mg/L
same,MIC,Streptococcus pyogenes; fully susceptible (n = 20),0.03 to 0.12 mg/L
same,MIC50,Streptococcus pyogenes; fully susceptible (n = 20),0.03 mg/L
same,MIC90,Streptococcus pyogenes; fully susceptible (n = 20),0.06 mg/L
same,MIC,Streptococcus pyogenes; multi-drug resistant (n = 20),0.03 to 0.06 mg/L
same,MIC50,Streptococcus pyogenes; multi-drug resistant (n = 20),0.03 mg/L
same,MIC90,Streptococcus pyogenes; multi-drug resistant (n = 20),0.06 mg/L
same,MIC90,Haemophilus influenzae; Haemophilus influenzae (n = 100),≤0.00075 mg/L
same,MIC,Haemophilus influenzae; [7],0.0075 to 0.06 mg/L
same,MIC50,Haemophilus influenzae; [7],≤ 0.00075 mg/L
same,MIC90,Haemophilus influenzae; [8],≤ 0.00075 mg/L
same,MIC,Haemophilus influenzae; [9],0.0075 to 0.06 mg/L
same,MIC50,Haemophilus influenzae; [9],≤ 0.0075 mg/L
same,MIC90,Haemophilus influenzae; [10],≤ 0.0075 mg/L
same,MIC,Haemophilus influenzae; [11],0.0075 to 0.25 mg/L
same,MIC50,Haemophilus influenzae; [11],≤ 0.0075 mg/L
same,MIC90,Haemophilus influenzae; [12],≤ 0.0075 mg/L
same,MIC,Staphylococcus aureus; Staphylococcus aureus (n = 50),0.06 to 0.25 mg/L
same,MIC50,Staphylococcus aureus; Staphylococcus aureus (n = 50),0.12 mg/L
same,MIC90,Staphylococcus aureus; Staphylococcus aureus (n = 50),0.25 mg/L
same,MIC,Staphylococcus aureus; β-lactamase negative (n = 20),0.06 to 0.25 mg/L
same,MIC50,Staphylococcus aureus; β-lactamase negative (n = 20),0.12 mg/L
same,MIC90,Staphylococcus aureus; β-lactamase negative (n = 20),0.25 mg/L
same,MIC,Staphylococcus aureus; β-lactamase positive (n = 20),0.06 to 0.25 mg/L
same,MIC50,Staphylococcus aureus; β-lactamase positive (n = 20),0.12 mg/L
same,MIC90,Staphylococcus aureus; β-lactamase positive (n = 20),0.25 mg/L
same,MIC,Staphylococcus aureus; [13],0.06 to 0.25 mg/L
same,MIC50,Staphylococcus aureus; [13],0.12 mg/L
same,MIC90,Staphylococcus aureus; [13],0.25 mg/L
same,MIC Range,Klebsiella pneumoniae; Klebsiella pneumoniae (n = 50),≤0.0075 to 1 mg/L
same,MIC50,Klebsiella pneumoniae; Klebsiella pneumoniae (n = 50),0.015 mg/L
same,MIC90,Klebsiella pneumoniae; Klebsiella pneumoniae (n = 50),1 mg/L
same,MIC50,Klebsiella pneumoniae; [20],≤ 0.0075 mg/L
same,MIC90,Klebsiella pneumoniae; [20],0.015 mg/L
same,MIC50,Klebsiella pneumoniae; [14],≤ 0.0075 mg/L
same,MIC90,Klebsiella pneumoniae; [14],1 mg/L
same,MIC Range,Klebsiella pneumoniae; [20],≤0.0075 to 0.12 mg/L
same,MIC Range,Klebsiella pneumoniae; [14],≤0.0075 to 1 mg/L
same,MIC,Streptococcus pneumoniae [2]; [15],0.03 to 0.25 mg/L
same,MIC50,Streptococcus pneumoniae [2]; [15],0.06 mg/L
same,MIC90,Streptococcus pneumoniae [2]; [15],0.12 mg/L
same,MIC,Streptococcus pneumoniae [2]; [16],0.03 to 0.12 mg/L
same,MIC50,Streptococcus pneumoniae [2]; [16],0.06 mg/L
same,MIC90,Streptococcus pneumoniae [2]; [16],0.12 mg/L
same,MIC,Streptococcus pneumoniae [2]; [17],0.03 to 0.12 mg/L
same,MIC50,Streptococcus pneumoniae [2]; [17],0.06 mg/L
same,MIC90,Streptococcus pneumoniae [2]; [17],0.12 mg/L
same,MIC,Streptococcus pneumoniae [2]; multi-drug resistant (n = 16),0.06 to 0.12 mg/L
same,MIC50,Streptococcus pneumoniae [2]; multi-drug resistant (n = 16),0.12 mg/L
same,MIC90,Streptococcus pneumoniae [2]; multi-drug resistant (n = 16),0.12 mg/L
same,MIC,Streptococcus pneumoniae [2]; [18],0.06 to 0.12 mg/L
same,MIC50,Streptococcus pneumoniae [2]; [18],0.12 mg/L
same,MIC90,Streptococcus pneumoniae [2]; [18],0.12 mg/L
same,MIC,Streptococcus pneumoniae [2]; penicillin resistant (n = 18),0.06 to 0.25 mg/L
same,MIC50,Streptococcus pneumoniae [2]; penicillin resistant (n = 18),0.12 mg/L
same,MIC90,Streptococcus pneumoniae [2]; penicillin resistant (n = 18),0.25 mg/L
same,MIC,Streptococcus pneumoniae [2]; [19],0.015 to 0.12 mg/L
same,MIC50,Streptococcus pneumoniae [2]; [19],0.06 mg/L
same,MIC90,Streptococcus pneumoniae [2]; [19],0.12 mg/L
